Test in all cases: cAMP functional assay (HTRF) in HEK293 cells in presence of 0.1% casein
Common to all, as to type: cell-based

Assay [1] deals with T1, human GLP-1 receptor (GLP-1R) (Homo sapiens, UniProt P43220).
T1 construct: expressed in transfected cells; host or cells: HEK293
The following applies: HEK293 cells expressing human GLP-1R, geometric mean, read-out: hGLP1R cAMP Rel EC50 nM (SEM, n).

Assay [2] has as its target T2, human glucose-dependent insulinotropic peptide receptor (GIPR) (Homo sapiens, UniProt P48546).
T2 construct: expressed in transfected cells; host or cells: HEK293
T2 sequence (P48546 22-466): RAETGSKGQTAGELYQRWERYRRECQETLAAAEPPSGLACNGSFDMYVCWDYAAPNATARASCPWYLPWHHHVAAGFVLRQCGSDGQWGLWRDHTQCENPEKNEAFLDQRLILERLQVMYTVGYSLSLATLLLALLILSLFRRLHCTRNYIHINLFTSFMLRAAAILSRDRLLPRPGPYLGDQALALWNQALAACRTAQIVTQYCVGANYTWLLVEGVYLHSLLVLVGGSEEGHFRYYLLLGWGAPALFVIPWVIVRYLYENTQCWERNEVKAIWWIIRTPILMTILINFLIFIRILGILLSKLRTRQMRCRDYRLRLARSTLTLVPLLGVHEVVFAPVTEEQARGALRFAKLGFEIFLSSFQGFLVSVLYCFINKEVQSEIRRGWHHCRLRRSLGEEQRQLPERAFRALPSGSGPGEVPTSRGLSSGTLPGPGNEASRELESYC
The following applies: HEK293 cells expressing human GIPR, geometric mean, read-out: hGIPR cAMP Rel EC50 nM (SEM, n).

Assay [3] concerns the target T3, human glucagon receptor (GcgR) (Homo sapiens, UniProt P47871).
T3 construct: expressed in transfected cells; host or cells: HEK293
The following applies: HEK293 cells expressing human GcgR, geometric mean, read-out: hGcgR cAMP Rel EC50 nM (SEM, n).

Each structure is given as a SMILES string. *1 amine or outer side, *2 acyl side, *3 side chain or, on linkers, in order; H or OH if unused. Where a SMILES comes first, the peptide text is derived from it. Side-chain parts run from the residue outwards. [ ]: non-standard residue; d: D form. The star is where a group is joined. C20 diacid = O=C(O)CCCCCCCCCCCCCCCCCCC(=O)*; C18 diacid = O=C(O)CCCCCCCCCCCCCCCCC(=O)*; αMePhe(2-F) = C[C@](N)(Cc1ccccc1F)C(=O)O; γGlu = O=C(O)[C@H](CCC(=O)[*:2])N[*:1]; αMeF = C[C@](N)(Cc1ccccc1)C(=O)O; 4Pal = N[C@@H](Cc1ccncc1)C(=O)O; AEEA = NCCOCCOCC(=O)O; Aib = CC(C)(N)C(=O)O

From patent publication US12723063B2, “GIPR-agonist compounds” (Eli Lilly and Company, priority 2019, dated 2026) come the findings set out here.

T3 sequence (P47871 26-477): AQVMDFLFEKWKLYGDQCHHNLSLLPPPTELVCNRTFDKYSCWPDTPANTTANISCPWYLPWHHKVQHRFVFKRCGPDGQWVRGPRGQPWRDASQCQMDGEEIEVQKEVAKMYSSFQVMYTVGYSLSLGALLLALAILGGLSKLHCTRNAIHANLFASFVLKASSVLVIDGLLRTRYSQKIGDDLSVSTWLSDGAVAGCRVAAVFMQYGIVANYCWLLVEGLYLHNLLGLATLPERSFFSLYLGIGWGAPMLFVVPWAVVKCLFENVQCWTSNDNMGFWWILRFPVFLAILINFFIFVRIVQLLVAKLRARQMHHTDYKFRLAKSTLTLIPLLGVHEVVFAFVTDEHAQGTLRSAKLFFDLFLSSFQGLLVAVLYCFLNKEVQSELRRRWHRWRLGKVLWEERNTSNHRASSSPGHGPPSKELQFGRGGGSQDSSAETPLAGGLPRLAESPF
T1 sequence (P43220 24-463): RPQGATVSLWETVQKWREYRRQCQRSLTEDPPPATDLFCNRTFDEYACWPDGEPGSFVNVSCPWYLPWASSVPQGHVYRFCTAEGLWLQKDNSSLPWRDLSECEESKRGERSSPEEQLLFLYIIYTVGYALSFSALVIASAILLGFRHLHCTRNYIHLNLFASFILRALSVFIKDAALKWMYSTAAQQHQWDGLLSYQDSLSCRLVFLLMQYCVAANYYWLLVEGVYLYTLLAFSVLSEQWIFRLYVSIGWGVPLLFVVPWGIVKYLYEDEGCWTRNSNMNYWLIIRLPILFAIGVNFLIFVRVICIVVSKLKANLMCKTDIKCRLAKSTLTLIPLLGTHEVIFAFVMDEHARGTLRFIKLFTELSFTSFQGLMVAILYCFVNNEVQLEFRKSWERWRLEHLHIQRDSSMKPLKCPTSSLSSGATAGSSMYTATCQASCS

Usually EC50 stands for the concentration needed to bring the measured effect to its halfway point. As to `CC[C@H](C)[C@H](NC(=O)[C@H](CO)NC(=O)[C@H](Cc1ccc(O)cc1)NC(=O)[C@H](CC(=O)O)NC(=O)[C@H](CO)NC(=O)[C@@H](NC(=O)[C@](C)(Cc1ccccc1)NC(=O)[C@@H](NC(=O)CNC(=O)[C@H](CCC(=O)O)NC(=O)C(C)(C)NC(=O)[C@@H](N)Cc1ccc(O)cc1)[C@@H](C)O)[C@@H](C)CC)C(=O)N[C@@H](C)C(=O)N[C@@H](CC(C)C)C(=O)N[C@@H](CC(=O)O)C(=O)N[C@@H](CCCCN)C(=O)N[C@@H](CCCCNC(=O)COCCOCCNC(=O)COCCOCCNC(=O)CC[C@H](NC(=O)CCCCCCCCCCCCCCCCC(=O)O)C(=O)O)C(=O)N[C@@H](Cc1c[nH]cn1)C(=O)N[C@@H](CCC(N)=O)C(=O)NC(C)(C)C(=O)N[C@@H](CC(=O)O)C(=O)N[C@@H](Cc1ccccc1)C(=O)N[C@H](C(=O)N[C@@H](CCC(=O)O)C(=O)N[C@@H](Cc1ccncc1)C(=O)N[C@@H](CC(C)C)C(=O)N[C@@H](CC(C)C)C(=O)N[C@@H](C)C(=O)NCC(=O)NCC(=O)N1CCC[C@H]1C(=O)N[C@@H](CO)C(=O)N[C@@H](CO)C(=O)NCC(=O)N[C@@H](C)C(=O)N1CCC[C@H]1C(=O)N1CCC[C@H]1C(=O)N1CCC[C@H]1C(=O)N[C@@H](CO)C(N)=O)C(C)C` [Example 23] (H-Y[Aib]EGT[αMeF]ISDYSIALDKK([AEEA-AEEA-γGlu-C18 diacid])HQ[Aib]DFVE[4Pal]LLAGGPSSGAPPPS-NH2), the EC50 was 206 nM in assay [1], 0.0192 nM in assay [2] and greater than 5000 nM in assay [3].
The corresponding values for `CC[C@H](C)[C@H](NC(=O)[C@H](Cc1ccccc1)NC(=O)[C@@H](NC(=O)CNC(=O)[C@H](CCC(=O)O)NC(=O)C(C)(C)NC(=O)[C@@H](N)Cc1ccc(O)cc1)[C@@H](C)O)C(=O)N[C@@H](CO)C(=O)N[C@@H](CC(=O)O)C(=O)N[C@@H](Cc1ccc(O)cc1)C(=O)N[C@@H](CO)C(=O)N[C@H](C(=O)NC(C)(C)C(=O)N[C@@H](CC(C)C)C(=O)N[C@@H](CC(=O)O)C(=O)N[C@@H](CCCCN)C(=O)N[C@@H](CCCCNC(=O)COCCOCCNC(=O)COCCOCCNC(=O)CC[C@H](NC(=O)CCCCCCCCCCCCCCCCC(=O)O)C(=O)O)C(=O)N[C@@H](Cc1c[nH]cn1)C(=O)N[C@@H](CCC(N)=O)C(=O)NC(C)(C)C(=O)N[C@@H](CC(=O)O)C(=O)N[C@@H](Cc1ccccc1)C(=O)N[C@H](C(=O)N[C@@H](CCC(=O)O)C(=O)N[C@@H](Cc1ccncc1)C(=O)N[C@@H](CC(C)C)C(=O)N[C@@H](CC(C)C)C(=O)N[C@@H](C)C(=O)NCC(=O)NCC(=O)N1CCC[C@H]1C(=O)N[C@@H](CO)C(=O)N[C@@H](CO)C(=O)NCC(=O)N[C@@H](C)C(=O)N1CCC[C@H]1C(=O)N1CCC[C@H]1C(=O)N1CCC[C@H]1C(=O)N[C@@H](CO)C(N)=O)C(C)C)[C@@H](C)CC` [Example 24] are greater than 5000 nM, 0.0699 nM and greater than 5000 nM.
`CC[C@H](C)[C@H](NC(=O)[C@H](CO)NC(=O)[C@H](Cc1ccc(O)cc1)NC(=O)[C@H](CC(=O)O)NC(=O)[C@H](CO)NC(=O)[C@@H](NC(=O)[C@](C)(Cc1ccccc1)NC(=O)[C@@H](NC(=O)CNC(=O)[C@H](CCC(=O)O)NC(=O)C(C)(C)NC(=O)[C@@H](N)Cc1ccc(O)cc1)[C@@H](C)O)[C@@H](C)CC)C(=O)N[C@@H](C)C(=O)N[C@@H](CC(C)C)C(=O)N[C@@H](CC(=O)O)C(=O)N[C@@H](CCCCN)C(=O)N[C@@H](CCCCNC(=O)COCCOCCNC(=O)COCCOCCNC(=O)CC[C@H](NC(=O)CCCCCCCCCCCCCCCCCCC(=O)O)C(=O)O)C(=O)N[C@@H](Cc1c[nH]cn1)C(=O)N[C@@H](CCC(N)=O)C(=O)NC(C)(C)C(=O)N[C@@H](CCC(=O)O)C(=O)N[C@@H](Cc1ccccc1)C(=O)N[C@H](C(=O)N[C@@H](CC(N)=O)C(=O)N[C@@H](Cc1c[nH]c2ccccc12)C(=O)N[C@@H](CC(C)C)C(=O)N[C@@H](CC(C)C)C(=O)N[C@@H](C)C(=O)NCC(=O)NCC(=O)N1CCC[C@H]1C(=O)N[C@@H](CO)C(=O)N[C@@H](CO)C(=O)NCC(=O)N[C@@H](C)C(=O)N1CCC[C@H]1C(=O)N1CCC[C@H]1C(=O)N1CCC[C@H]1C(=O)N[C@@H](CO)C(N)=O)C(C)C` [Example 25] (H-Y[Aib]EGT[αMeF]ISDYSIALDKK([AEEA-AEEA-γGlu-C20 diacid])HQ[Aib]EFVNWLLAGGPSSGAPPPS-NH2): the EC50 in assay [1] was 8.39 nM; in assay [2], 0.0155 nM; in assay [3] it was greater than 5000 nM.
The corresponding values for `CC[C@H](C)[C@H](NC(=O)[C@H](CO)NC(=O)[C@H](Cc1ccc(O)cc1)NC(=O)[C@H](CC(=O)O)NC(=O)[C@H](CO)NC(=O)[C@@H](NC(=O)[C@](C)(Cc1ccccc1F)NC(=O)[C@@H](NC(=O)CNC(=O)[C@H](CCC(=O)O)NC(=O)C(C)(C)NC(=O)[C@@H](N)Cc1ccc(O)cc1)[C@@H](C)O)[C@@H](C)CC)C(=O)N[C@@H](C)C(=O)N[C@@H](CC(C)C)C(=O)N[C@@H](CC(=O)O)C(=O)N[C@@H](CCCCN)C(=O)N[C@@H](CCCCNC(=O)COCCOCCNC(=O)COCCOCCNC(=O)CC[C@H](NC(=O)CCCCCCCCCCCCCCCCCCC(=O)O)C(=O)O)C(=O)N[C@@H](Cc1c[nH]cn1)C(=O)N[C@@H](CCC(N)=O)C(=O)NC(C)(C)C(=O)N[C@@H](CCC(=O)O)C(=O)N[C@@H](Cc1ccccc1)C(=O)N[C@H](C(=O)N[C@@H](CC(N)=O)C(=O)N[C@@H](Cc1c[nH]c2ccccc12)C(=O)N[C@@H](CC(C)C)C(=O)N[C@@H](CC(C)C)C(=O)N[C@@H](C)C(=O)NCC(=O)NCC(=O)N1CCC[C@H]1C(=O)N[C@@H](CO)C(=O)N[C@@H](CO)C(=O)NCC(=O)N[C@@H](C)C(=O)N1CCC[C@H]1C(=O)N1CCC[C@H]1C(=O)N1CCC[C@H]1C(=O)N[C@@H](CO)C(N)=O)C(C)C` [Example 26] (H-Y[Aib]EGT[αMePhe(2-F)]ISDYSIALDKK([AEEA-AEEA-γGlu-C20 diacid])HQ[Aib]EFVNWLLAGGPSSGAPPPS-NH2) are 5.69 nM, 0.00991 nM and greater than 5000 nM.
The corresponding values for `CC[C@H](C)[C@H](NC(=O)[C@H](CO)NC(=O)[C@H](Cc1ccc(O)cc1)NC(=O)[C@H](CC(=O)O)NC(=O)[C@H](CO)NC(=O)[C@@H](NC(=O)[C@H](Cc1ccccc1)NC(=O)[C@@H](NC(=O)CNC(=O)[C@H](CCC(=O)O)NC(=O)[C@@H](C)NC(=O)[C@@H](N)Cc1ccc(O)cc1)[C@@H](C)O)[C@@H](C)CC)C(=O)N[C@@H](CC(C)C)C(=O)N[C@@H](CC(C)C)C(=O)N[C@@H](CC(=O)O)C(=O)N[C@@H](CCCCN)C(=O)N[C@@H](CCCCNC(=O)COCCOCCNC(=O)COCCOCCNC(=O)CC[C@H](NC(=O)CCCCCCCCCCCCCCCCC(=O)O)C(=O)O)C(=O)N[C@@H](C)C(=O)N[C@@H](CCC(N)=O)C(=O)NC(C)(C)C(=O)N[C@@H](CCC(=O)O)C(=O)N[C@@H](Cc1ccccc1)C(=O)N[C@H](C(=O)N[C@@H](CCC(N)=O)C(=O)N[C@@H](Cc1c[nH]c2ccccc12)C(=O)N[C@@H](CC(C)C)C(=O)N[C@@H](CC(C)C)C(=O)N[C@@H](C)C(=O)NCC(=O)NCC(=O)N1CCC[C@H]1C(=O)N[C@@H](CO)C(=O)N[C@@H](CO)C(=O)NCC(=O)N[C@@H](C)C(=O)N1CCC[C@H]1C(=O)N1CCC[C@H]1C(=O)N1CCC[C@H]1C(=O)N[C@@H](CO)C(N)=O)C(C)C` [Example 27] (H-Y[dA]EGTFISDYSILLDKK([AEEA-AEEA-γGlu-C18 diacid])AQ[Aib]EFVQWLLAGGPSSGAPPPS-NH2) are greater than 5000 nM, 0.0132 nM and greater than 5000 nM.
The matching figures for `CC[C@H](C)[C@H](NC(=O)[C@H](CO)NC(=O)[C@H](Cc1ccc(O)cc1)NC(=O)[C@H](CC(=O)O)NC(=O)[C@H](CO)NC(=O)[C@@H](NC(=O)[C@H](Cc1ccccc1)NC(=O)[C@@H](NC(=O)CNC(=O)[C@H](CCC(=O)O)NC(=O)[C@@H](C)NC(=O)[C@@H](N)Cc1ccc(O)cc1)[C@@H](C)O)[C@@H](C)CC)C(=O)N[C@@H](CC(C)C)C(=O)N[C@@H](CC(C)C)C(=O)N[C@@H](CC(=O)O)C(=O)N[C@@H](CCCCN)C(=O)N[C@@H](CCCCNC(=O)COCCOCCNC(=O)COCCOCCNC(=O)CC[C@H](NC(=O)CCCCCCCCCCCCCCCCC(=O)O)C(=O)O)C(=O)N[C@@H](C)C(=O)N[C@@H](CCC(N)=O)C(=O)NC(C)(C)C(=O)N[C@@H](CCC(=O)O)C(=O)N[C@@H](Cc1ccccc1)C(=O)N[C@H](C(=O)N[C@@H](CC(N)=O)C(=O)N[C@@H](Cc1c[nH]c2ccccc12)C(=O)N[C@@H](CC(C)C)C(=O)N[C@@H](CC(C)C)C(=O)N[C@@H](CCC(=O)O)C(=O)NCC(=O)NCC(=O)N1CCC[C@H]1C(=O)N[C@@H](CO)C(=O)N[C@@H](CO)C(=O)NCC(=O)N[C@@H](C)C(=O)N1CCC[C@H]1C(=O)N1CCC[C@H]1C(=O)N1CCC[C@H]1C(=O)N[C@@H](CO)C(N)=O)C(C)C` [Example 28] (H-Y[dA]EGTFISDYSILLDKK([AEEA-AEEA-γGlu-C18 diacid])AQ[Aib]EFVNWLLEGGPSSGAPPPS-NH2): greater than 5000 nM, 0.0118 nM and greater than 5000 nM.
